# Data published in patent US20240025862A1, “SUBSTITUTED N-PHENYLURACILS AND SALTS THEREOF, AND USE THEREOF AS HERBICIDAL ACTIVE SUBSTANCES” (Bayer Aktiengesellschaft, priority 2020, published 2024).
# Experiments:
# Assay type in all cases: in vivo
# Setaria viridis (SETVI) = test: Post-emergence herbicidal action, greenhouse pot test (also comparative test C)
# In short: (§1)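 Visual rating against untreated controls, about 3 weeks after spraying, from 0% (like control) to 100% (plants dead). Weeds were treated at the one-leaf stage, 2–3 weeks after sowing in sandy loam, with aqueous WP/EC spray containing 0.5% additive at 600 l/ha. Doses were ≤20 g/ha, or ≤5 g/ha for comparative test C.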
# [1] = tested on: Echinochloa crus-galli (ECHCG); test: as above
# In short: as §1
# [2] = tested on: Matricaria inodora (MATIN); test: as above
# In short: as §1
# [3] = tested on: Alopecurus myosuroides (ALOMY); test: as above; conditions: rated visually after about 3 weeks vs untreated controls, 100% = plants have died
# In short: as §1
# Viola tricolor (VIOTR) = test: Post-emergence herbicidal action, greenhouse pot test
# In short: (§2)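 Activity was scored by eye about 3 weeks after treatment against untreated plants, where 100% means dead plants and 0% means no difference. Plants at the one-leaf stage received a foliar spray of WP or EC formulations in water plus 0.5% additive (600 l/ha, up to 20 g/ha). Plants were grown in sandy loam pots in a greenhouse for 2–3 weeks before spraying.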
# Avena fatua (AVEFA) = test: as above; conditions: 20 g/ha, rated visually after about 3 weeks vs untreated controls, 100% = plants have died
# In short: as §2
# Lolium rigidum (LOLRI) = test: as above; conditions: dosage 20 g/ha
# In short: as §2
# [4] = tested on: Pharbitis purpurea (PHBPU); test: as above
# In short: as §2
# [5] = tested on: Amaranthus retroflexus (AMARE); test: as above; conditions: rated visually after about 3 weeks vs untreated controls, 100% = plants have died
# In short: as §2
# [6] = tested on: Polygonum convolvulus (POLCO); test: as above
# In short: as §2
# [7] = tested on: Abutilon theophrasti (ABUTH); test: as above; conditions: rated visually after about 3 weeks vs untreated controls, 100% = plants have died
# In short: as §2
# Veronica persica (VERPE) = test: as above
# In short: as §2
# [8] = tested on: Triticum aestivum (TRZAS); test: Post-emergence crop plant compatibility, greenhouse pot test; conditions: vs untreated controls
# In short: (§3)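 Values are visual % damage versus untreated controls (100% = plants died) about 3 weeks after treatment. Plants in sandy loam were sprayed at the one-leaf stage, 2–3 weeks after sowing, with aqueous WP/EC preparations plus 0.5% additive at 600 l/ha; a/b/c mark different dose levels.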
# Glycine max (GLXMA) = test: as above; conditions: 1.25 g/ha
# In short: as §3
# Zea mays (ZEAMX) = test: as above; conditions: 1.25 g/ha, vs untreated controls
# In short: as §3
# Oryza sativa (ORYSA) = test: Post-emergence crop plant compatibility, greenhouse pot test (also comparative test C); conditions: for Post-emergence action against ORYSA (crop plant compatibility): vs untreated controls; for Post-emergence action against ORYSA in %: 20 g/ha, crop plant compatibility
# In short: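 Visual damage versus untreated plants (0% = like control, 100% = plants died) was scored about 3 weeks after a post-emergence spray in greenhouse pots. Treatment: one-leaf stage, WP or EC in water at 600 l/ha with 0.5% additive; a/b/c mark different dosages on the same crop.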
compound,measurement,setting,value
"COCCOC(=O)COc1ccccc1Oc1cc(-n2c(=O)cc(C(F)(F)F)n(C)c2=O)c(F)cc1[N+](=O)[O-] [I.6-1, 2-Methoxyethyl (2-{4-fluoro-5-[3-methyl-2,6-dioxo-4-(trifluoromethyl)-3,6-dihydropyrimidin-1(2H)-yl]-2-nitrophenoxy}phenoxy)acetate]",pest or weed control at 20 g/ha,"Setaria viridis (SETVI); Setaria viridis, 504 h, 20 g/ha, read-out: Post-emergence action against SETVI",100%
same,pest or weed control at 1.25 g/ha,"Setaria viridis (SETVI); Setaria viridis, 504 h, dosage 1.25 g/ha, read-out: Post-emergence action against SETVI in %",100%
same,pest or weed control at 5 g/ha,"Setaria viridis (SETVI); Setaria viridis, 504 h, dosage 5 g/ha, read-out: Post-emergence action against SETVI in %",100%
same,Post-emergence action at 1.25 g/ha against ECHCG in %,"[1]; 1.25 g/ha, rated visually after about 3 weeks vs untreated controls, 100% = plants have died",90%
same,pest or weed control at 5 g/ha,"[1]; Echinochloa crus-galli, 504 h, dosage 5 g/ha, read-out: Post-emergence action against ECHCG in %",90%
same,pest or weed control at 20 g/ha,"[1]; Echinochloa crus-galli, 504 h, dosage 20 g/ha, read-out: Post-emergence action against ECHCG in %",100%
same,pest or weed control at 5 g/ha,"[2]; Tripleurospermum inodorum, 504 h, dosage 5 g/ha, read-out: Post-emergence action against MATIN in %",100%
same,pest or weed control at 20 g/ha,"[2]; Tripleurospermum inodorum, 504 h, dosage 20 g/ha, read-out: Post-emergence action against MATIN in %",100%
same,pest or weed control at 5 g/ha,"[3]; Alopecurus myosuroides, 504 h, 5 g/ha, read-out: Post-emergence action at 5 g/ha against ALOMY in %",80%
same,pest or weed control at 20 g/ha,"[3]; Alopecurus myosuroides, 504 h, 20 g/ha, read-out: Post-emergence action at 20 g/ha against ALOMY in %",100%
same,pest or weed control at 1.25 g/ha,"Viola tricolor (VIOTR); Viola tricolor, 504 h, 1.25 g/ha, read-out: Post-emergence action against VIOTR",100%
same,pest or weed control at 5 g/ha,"Viola tricolor (VIOTR); Viola tricolor, 504 h, 5 g/ha, read-out: Post-emergence action against VIOTR",100%
same,pest or weed control at 20 g/ha,"Viola tricolor (VIOTR); Viola tricolor, 504 h, 20 g/ha, read-out: Post-emergence action against VIOTR",100%
same,pest or weed control at 20 g/ha,"Avena fatua (AVEFA); Avena fatua, 504 h, read-out: Post-emergence action at 20 g/ha against AVEFA in %",100%
same,pest or weed control at 20 g/ha,"Lolium rigidum (LOLRI); Lolium rigidum, 504 h, read-out: Post-emergence action against LOLRI in %",80%
same,pest or weed control at 5 g/ha,"[4]; Ipomoea purpurea, 504 h, dosage 5 g/ha, read-out: Post-emergence action against PHBPU in %",100%
same,pest or weed control at 20 g/ha,"[4]; Ipomoea purpurea, 504 h, dosage 20 g/ha, read-out: Post-emergence action against PHBPU in %",100%
same,pest or weed control at 1.25 g/ha,"[5]; Amaranthus retroflexus, 504 h, 1.25 g/ha, read-out: Post-emergence action at 1.25 g/ha against AMARE in %",100%
same,pest or weed control at 5 g/ha,"[5]; Amaranthus retroflexus, 504 h, 5 g/ha, read-out: Post-emergence action at 5 g/ha against AMARE in %",100%
same,pest or weed control at 20 g/ha,"[5]; Amaranthus retroflexus, 504 h, 20 g/ha, read-out: Post-emergence action at 20 g/ha against AMARE in %",100%
same,pest or weed control at 5 g/ha,"[6]; Fallopia convolvulus, 504 h, dosage 5 g/ha, read-out: Post-emergence action against POLCO in %",100%
same,pest or weed control at 20 g/ha,"[6]; Fallopia convolvulus, 504 h, dosage 20 g/ha, read-out: Post-emergence action against POLCO in %",100%
same,pest or weed control at 1.25 g/ha,"[7]; Abutilon theophrasti, 504 h, 1.25 g/ha, read-out: Post-emergence action at 1.25 g/ha against ABUTH in %",100%
same,pest or weed control at 5 g/ha,"[7]; Abutilon theophrasti, 504 h, 5 g/ha, read-out: Post-emergence action at 5 g/ha against ABUTH in %",100%
same,pest or weed control at 20 g/ha,"[7]; Abutilon theophrasti, 504 h, 20 g/ha, read-out: Post-emergence action at 20 g/ha against ABUTH in %",100%
same,pest or weed control at 5 g/ha,"Veronica persica (VERPE); Veronica persica, 504 h, 5 g/ha, read-out: Post-emergence action against VERPE",100%
same,pest or weed control at 20 g/ha,"Veronica persica (VERPE); Veronica persica, 504 h, 20 g/ha, read-out: Post-emergence action against VERPE",100%
same,Post-emergence action against TRZAS (crop plant compatibility),[8]; 1.25 g/ha,10%
same,Post-emergence action against TRZAS (crop plant compatibility),[8]; 5 g/ha,20%
same,Post-emergence action against GLXMA in %,Glycine max (GLXMA),20%
same,Post-emergence action against ZEAMX (crop plant compatibility),Zea mays (ZEAMX),20%
same,Post-emergence action against ORYSA (crop plant compatibility),Oryza sativa (ORYSA); 1.25 g/ha,0%
same,Post-emergence action against ORYSA (crop plant compatibility),Oryza sativa (ORYSA); 5 g/ha,10%
same,Post-emergence action against ORYSA in %,Oryza sativa (ORYSA),20%
Cn1c(C(F)(F)F)cc(=O)n(-c2cc(Oc3ccccc3OCC(=O)OCc3ccccn3)c([N+](=O)[O-])cc2F)c1=O [I.6-276],Post-emergence action against SETVI,Setaria viridis (SETVI); 20 g/ha,100%
same,Post-emergence action against SETVI in %,Setaria viridis (SETVI); dosage 1.25 g/ha,100%
same,Post-emergence action against SETVI in %,Setaria viridis (SETVI); dosage 5 g/ha,100%
same,Post-emergence action against ECHCG in %,[1]; dosage 5 g/ha,90%
same,Post-emergence action against ECHCG in %,[1]; dosage 20 g/ha,100%
same,Post-emergence action against MATIN in %,[2]; dosage 5 g/ha,100%
same,Post-emergence action against MATIN in %,[2]; dosage 20 g/ha,100%
same,Post-emergence action at 5 g/ha against ALOMY in %,[3]; 5 g/ha,80%
same,Post-emergence action at 20 g/ha against ALOMY in %,[3]; 20 g/ha,100%
same,Post-emergence action against VIOTR,Viola tricolor (VIOTR); 1.25 g/ha,100%
same,Post-emergence action against VIOTR,Viola tricolor (VIOTR); 5 g/ha,100%
same,Post-emergence action against VIOTR,Viola tricolor (VIOTR); 20 g/ha,100%
same,Post-emergence action at 20 g/ha against AVEFA in %,Avena fatua (AVEFA),80%
same,Post-emergence action against LOLRI in %,Lolium rigidum (LOLRI),90%
same,Post-emergence action against PHBPU in %,[4]; dosage 1.25 g/ha,100%
same,Post-emergence action against PHBPU in %,[4]; dosage 5 g/ha,100%
same,Post-emergence action against PHBPU in %,[4]; dosage 20 g/ha,100%
same,Post-emergence action at 1.25 g/ha against AMARE in %,[5]; 1.25 g/ha,100%
same,Post-emergence action at 5 g/ha against AMARE in %,[5]; 5 g/ha,100%
same,Post-emergence action at 20 g/ha against AMARE in %,[5]; 20 g/ha,100%
same,Post-emergence action against POLCO in %,[6]; dosage 20 g/ha,100%
same,Post-emergence action at 1.25 g/ha against ABUTH in %,[7]; 1.25 g/ha,100%
same,Post-emergence action at 5 g/ha against ABUTH in %,[7]; 5 g/ha,100%
same,Post-emergence action at 20 g/ha against ABUTH in %,[7]; 20 g/ha,100%
same,Post-emergence action against VERPE,Veronica persica (VERPE); 5 g/ha,100%
same,Post-emergence action against VERPE,Veronica persica (VERPE); 20 g/ha,100%
same,Post-emergence action against TRZAS (crop plant compatibility),[8]; 1.25 g/ha,10%
same,Post-emergence action against TRZAS (crop plant compatibility),[8]; 5 g/ha,10%
same,Post-emergence action against GLXMA in %,Glycine max (GLXMA),20%
same,Post-emergence action against ZEAMX (crop plant compatibility),Zea mays (ZEAMX),10%
same,Post-emergence action against ORYSA (crop plant compatibility),Oryza sativa (ORYSA); 1.25 g/ha,0%
same,Post-emergence action against ORYSA (crop plant compatibility),Oryza sativa (ORYSA); 5 g/ha,10%
same,Post-emergence action against ORYSA in %,Oryza sativa (ORYSA),20%
